The data set can be described thus: IV and oral PK profile in mice – LC-MS, in vivo study for V1a-R antagonist project, late-stage follow-up (AID 743028). As to conditions: C57Bl6 mouse plasma PK; for Cmax: peak plasma concentration; for AUC last: plasma exposure; for Tmax: time to peak.

Here are results for one compound from PubChem BioAssay AID743028 (The Scripps Research Institute Molecular Screening Center, 2013).

As to `O=C(C1CCN(c2ccc(Cl)cn2)CC1)N(CC1CC1)c1ccc(Cl)cc1`, where the note is “IV dosing 1 mg/kg”, the half-life (in general, how long it takes for the measured level to halve) was 2.22 h; the peak concentration (Cmax) (commonly the peak of the concentration-time curve) amounted to 19.5 µM; the AUC last is 10.5 µM·h; the Tmax (in general, the time from dosing to the highest level) came to 0.08 h. The mean residence time MRT inf – broadly, the average time that molecules of a dose stay in the body – (IV dosing 1 mg/kg, mean residence time) is 1.65 h. Besides, where the note is “IV dosing 1 mg/kg, plasma clearance”, the clearance is 2.9 mL/min/kg. The compound also yielded a Vss (IV dosing 1 mg/kg, volume of distribution) of 0.26 L/kg. Besides, where the note is “PO dosing 10 mg/kg”, the half-life came to 2.88 h, the Cmax came out at 3.08 µM, the AUC last is 10.5 µM·h and the Tmax came out at 0.667 h. For the same compound, the bioavailability (in general, dose-corrected exposure relative to a reference, in per cent) (PO dosing 10 mg/kg, oral bioavailability) is 6.54%. Under “PO dosing 10 mg/kg, plasma clearance”, the apparent oral clearance (CL/F) amounted to 35.1 mL/min/kg.
